Data: US20240398771A1, “TREATMENT OF SCLERODERMA AND RAYNAUD'S SYNDROME” (Aisa Pharma, Inc., priority 2023, published 2024)

Legend:
[1] = test system: participants with SSc-RP; test: Pain score (11-point Likert scale) recorded during weekly RP attacks; format: in vivo, human; conditions: Tadalafil 5 mg (n = 4); Raynaud's pain, Table G
Description: (§1) The relevant metrics measured by this tool daily are: • Study medication • SSc-RP symptoms (Reporting an attack including duration of attack) • Severity of the attack considering all symptoms of the attack e.g. tingling, numbness, pain, color changes (VAS 0-10 cm scale) • Participant's location at the time of the attack (inside home/outside home) • Selecting symptoms experienced during the attack (tingling, numbness, pain, color changes, other) • Pain rating during the attack (11-point Likert scale) • The RCS based on how much difficulty participants had with Raynaud's today, how many attacks the participant had, and how long they lasted. Participants will also be asked to consider how much pain, numbness, or other symptoms the Raynaud's caused in fingers (including painful sores), and how much the Raynaud's alone affected the use of hands today (VAS 0-10 cm scale).
The absolute change in highest pain score (11-point Likert scale) of weekly RP attacks from baseline to the end of each dosing period will be a secondary outcome variable. […] The variable will be calculated similar to frequency data as before.
The absolute change in average pain score (11-point Likert scale) of weekly RP attacks from baseline to the end of each Dosing Period will be a secondary outcome variable. […] The variable will be calculated similar to frequency data as before.

[2] = test system: participants with SSc-RP; test: Average severity (0-10) of weekly symptomatic RP attacks; format: in vivo, human; conditions: Example 3
Description: as §1
The absolute change in average severity of weekly RP attacks (VAS 0-10 cm scale) from baseline to the end of each Dosing Period was and will be a secondary outcome variable. The sponsor-developed participant-informed diary will be used to record data. Average severity of weekly RP attacks is defined as the total severity scores of RP attacks divided by total number of RP attacks within the last 7 days of each dosing period. […] The variable will be calculated similar to frequency data as before.

[3] = test system: participants with SSc-RP; test: SHAQ Standard Disability Index; format: in vivo, human; conditions: Example 4, mITT Part A
Description: The standard, validated, patient reported outcome measures tool for SSc patients, the SHAQ, will be collected at the time points specified in the study schedules (FIG. 2 and FIG. 3A and/or FIG. 3B). To assess the participant's quality of life. The SHAQ includes a Raynaud's VAS that will also be reported separately.
The standard, validated, patient reported outcome measures tool for SSc patients, the Scleroderma Health Assessment Questionnaire (SHAQ), will be used to assess the participant qualify of life. Details are attached in the Appendix. The participant quality of life will be scored, and a disability index calculated for each questionnaire completed by the patient at Screening and each in-clinic visit. The absolute change in participant quality of life from baseline to the end of each dosing period will be calculated similar to frequency data as before.
The SHAQ is used to calculate a Disability Index to assess the participant qualify of life. The eight categories assessed by the Disability Index are 1) dressing and grooming, 2) arising, 3) eating, 4) walking, 5) hygiene, 6) reach, 7) grip, and 8) common daily activities. For each of these categories, patients report the amount of difficulty they have in performing two or three specific activities. […]

[4] = 10 mg, single oral dose, healthy volunteers; cited from earlier work

Row | SMILES | Baseline Average Pain Score [Mean (SD)] [1] | severity of attacks as reported by patients, comparison in words [2] | patient-reported SSc disease disability compared to placebo [3] | CL/F, Mean [4] [L/h]
1 | CN1CC(=O)N2[C@H](c3ccc4c(c3)OCO4)c3[nH]c4ccccc4c3C[C@@H]2C1=O [Tadalafil] | 5.47 (3.586) |  |  | 
2 | COCCOC(=O)C1=C(C)NC(C)=C(C(=O)OC/C=C/c2ccccc2)C1c1cccc([N+](=O)[O-])c1 (stereo not shown) [Cilnidipine, 1,4-dihydro-2,6-dimethyl,4-(3-nitrophenyl)-3,5-pyridinedicarboxylic acid 2-methoxyethyl (2 E)-3-phenyl-2-propenyl ester] |  | 20 mg reducing severity more than 10 mg | may reduce | 304.7
